Where “and” joins values, the source holds several entries; their conditions need not be identical. Identical values can stand only once. Like-named read-outs stand apart in the source and are kept apart here.
Columns and labels:
HL60 cells [1] = assay: Cell differentiation assay (CD11b, FACS), HL60; format: cell-based, human
Experimental: (§1) The effects of 36a–g on the differentiation of HL60 and NB4 cells were then assessed.
(§2) Cells (1 × 10^6/mL) were treated with compounds at different concentrations based on IC50 in Table 2 […]. After the treatment, cells were washed twice with PBS and then fixed with 75% alcohol overnight at −20 °C. The fixed cells were washed with PBS and blocked with 95 μL 3% BSA in PBS for 45 min at room temperature. The cells were incubated with 5 μL CD11b-PE at 4 °C for 45 min with protection from light. The antigens were then determined by a FACSCalibur flow cytometer (BD Biosciences Pharmingen, San Diego, CA, USA). The percentages of positive cells were quantitated using CellQuest Pro software. Cells stained with mouse IgG-PE served as negative controls. Both CD11b-PE and mouse IgG-PE antibodies were purchased from BD Biosciences. At least 10,000 cells were analyzed for each data point.

NB4 cells [2] = assay: Inhibition of cell proliferation assay (SRB), NB4; format: cell-based, human; settings: read-out: IC50 cell proliferation NB4
Experimental: (§3) Human promyelocytic leukemia cell lines HL60 and NB4 were employed to determine the effects of the derivatives on cell proliferation. […] Alkoxy-substitution at the 2-position (i.e., compounds 36f, 36g) harmed the cell proliferation inhibitory activity of the compounds in both cell lines while the isopropyl group at the same position (compound 36h) is favourable. The extension of the π system by an alkenyl bond or a ketone group, as in 36j–l, didn’t affect the compounds’ inhibitory activity in HL60 cells but nulified their activity in NB4 cells. The indene ring tolerates the dual-introduction of a small alkoxyl and an alkyl group at 1- and 2-position, respectively, to retain the antiproliferative activity in HL60 cells.
(§4) Cells were seeded in 96-well plates (Corning Inc.) with a density of 2500 cells (NB4 or HL60) per well for overnight. Then, cells were exposed to each of the test compounds 36a–36p in gradient concentration of 10^−9, 10^−8, 10^−7, 10^−6, 10^−5 mol/L. Control cultures were treated with the same volume of DMSO. After 72 hours of incubation, the cell density in each well were fixed by trichloroacetic acid and then measured using the SRB (sulforhodamine B) method. After rinsing, the SRB was solubilized in TrisHCl, and the optical density of each culture was determined with a Bio-Tek Elx 800 absorbance microplate reader (BioTek, Shoreline, WA, USA). The OD of the treated cultures was divided by that of the control cultures treated with solvent alone.

NB4 cells [3] = assay: Cell differentiation assay (CD11b, FACS), NB4; format: cell-based, human
Experimental: as §1, §2

HL60 cells [4] = assay: Inhibition of cell proliferation assay (SRB), HL60; format: cell-based; settings: Homo sapiens, read-out: IC50 cell proliferation HL60
Experimental: as §3, §4

RARα (RAR alpha LBD-GST) = biological target: T1, RARα (RAR alpha LBD-GST) (Homo sapiens, UniProt P10276); assay: Receptor binding assay (LanthaScreen TR-FRET RAR alpha Coactivator Assay); settings: 1 h incubation, AM80 positive control, read-out: RARα binding affinity EC50
T1 construct: A mixture of 5 nM RAR alpha LBD-GST, 5 nM TbAnti-GST antibody, 50 nM Fluorescein-D22 was added to the wells; purchased Invitrogen
T1 sequence (P10276 183-417 limits assumed): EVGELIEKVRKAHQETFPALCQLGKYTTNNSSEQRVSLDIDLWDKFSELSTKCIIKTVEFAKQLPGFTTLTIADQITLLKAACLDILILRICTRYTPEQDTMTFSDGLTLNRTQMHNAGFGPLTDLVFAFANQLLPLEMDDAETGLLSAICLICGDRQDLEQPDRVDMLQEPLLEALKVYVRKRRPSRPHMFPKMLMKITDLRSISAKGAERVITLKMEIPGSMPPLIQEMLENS
Experimental: The obtained target compounds were tested for their binding affinities to RARα using a time resolved fluorescence resonance energy transfer (TR-FRET) assay with AM80 as the positive control.
All synthesized compounds were tested for their binding affinity by using time resolved fluorescence resonance energy transfer (TR-FRET) assay, which used a LanthaScreen® TR-FRET RAR alpha Coactivator Assay Kit (Invitrogen, Carlsbad, CA, USA). Briefly, all experiments were performed in black 384-well low-volume plates (Corning Inc., Corning, NY, USA) in dark at room temperature. The final assay volume was 20 μL. All dilutions were made in assay buffer (TR-FRET Coregulator Buffer D). The final DMSO concentration was 1%. A mixture of 5 nM RAR alpha LBD-GST, 5 nM TbAnti-GST antibody, 50 nM Fluorescein-D22 was added to the wells. The only variable is the agonist concentration (6.1 × 10^−11~1.0 × 10^−6 M final concentrations of each retinoid). […] Data were analyzed by using GraphPad Prism software (GraphPad Software, Inc., La Jolla, CA, USA) and FRET signal was determined for all treatments by dividing 520 nm/495 nm signals. Graphs plotted as fold change of FRET signal for compounds treatment over DMSO only treatment.

[5] = Homo sapiens, NB-4, 72 h, NB4 cells, 72 hours, SRB
[6] = HL-60, HL60 cells, 72 hours, SRB

| Structure (SMILES) | melting point | EC50 (RARα (RAR alpha LBD-GST)) | IC50 (HL60 cells [4]; [6]) | CD11b (%) HL60 (HL60 cells [1]; 10 μM) | IC50 (NB4 cells [2]; Homo sapiens, NB-4, 72 h) | CD11b (%) NB4 (NB4 cells [3]; 10 μM) | IC50 (HL60 cells [4]; HL-60, 72 h) | CD11b (%) HL60 (HL60 cells [1]; 50 μM) | IC50 (NB4 cells [2]; [5]) | CD11b (%) NB4 (NB4 cells [3]; 5 μM) | IC50 (NB4 cells [2]; NB4 cells, 72 hours, SRB) | CD11b (%) NB4 (NB4 cells [3]; 20 μM) |
| --- | --- | --- | --- | --- | --- | --- | --- | --- | --- | --- | --- | --- |
| CC1(C)CCC(C)(C)c2cc(NC(=O)c3ccc(C(=O)O)cc3)ccc21 [AM80, reference compound] | – | – | – | 4.59 (10 μM) % | 13.3 µM | 94.93 (10 μM) % | 0.17 µM | – | – | – | – | – |
| O=C(O)c1ccc(C(=O)Nc2ccc3c(c2)CCC3)cc1 [Compound 36a, 4-((2,3-Dihydro-1H-inden-5-yl)carbamoyl)benzoic acid] | > 250 °C | 0.0121 µM | > 50 µM | – | – | – | – | 1.13 (50 μM) % | 6.97 µM | 0.97 (5 μM) % | – | – |
| CCOC1CCc2ccc(NC(=O)c3ccc(C(=O)O)cc3)cc21 (stereo not drawn) [Compound 36c] | > 250 °C | – | – | – | – | – | – | – | – | – | – | – |
| CC(C)OC1CCc2ccc(NC(=O)c3ccc(C(=O)O)cc3)cc21 (stereo not drawn) [Compound 36d, 4-((3-Isopropoxy-2,3-dihydro-1H-inden-5-yl)carbamoyl)benzoic acid] | > 250 °C | 0.0243 µM | > 50 µM | – | – | – | – | 3.77 (50 μM) % | 1.86 to 4.09 µM | 68.88% and 68.88 (5 μM) % | 1.86 µM | – |
| CCCCOC1CCc2ccc(NC(=O)c3ccc(C(=O)O)cc3)cc21 (stereo not drawn) [Compound 36e, 4-((3-Butoxy-2,3-dihydro-1H-inden-5-yl)carbamoyl)benzoic acid] | > 250 °C | 0.0149 µM | > 50 µM | – | – | – | – | 2.87 (50 μM) % | – | 15.42 (5 μM) % | – | – |
| CCOC1Cc2ccc(NC(=O)c3ccc(C(=O)O)cc3)cc2C1 (stereo not drawn) [Compound 36g, 4-((2-Ethoxy-2,3-dihydro-1H-inden-5-yl)carbamoyl)benzoic acid] | > 250 °C | > 1 µM | > 50 µM | – | – | – | – | 5.82 (50 μM) % | 22 µM | – | – | 0.49 (20 μM) % |
| CC(C)C1Cc2ccc(NC(=O)c3ccc(C(=O)O)cc3)cc2C1 (stereo not drawn) [Compound 36h, 4-((2-Isopropyl-2,3-dihydro-1H-inden-5-yl)carbamoyl)benzoic acid] | > 250 °C | 0.043 µM | 0.91 µM | – | – | – | – | – | 2.61 µM | – | – | – |
| CC1=Cc2cc(NC(=O)c3ccc(C(=O)O)cc3)ccc2C1 [Compound 36i, 4-((2-Methyl-1H-inden-5-yl)carbamoyl)benzoic acid] | > 250 °C | 0.0141 µM | > 50 µM | – | – | – | – | – | > 50 µM | – | – | – |
| CC(C)C1=Cc2cc(NC(=O)c3ccc(C(=O)O)cc3)ccc2C1 [Compound 36j, 4-((2-Isopropyl-1H-inden-5-yl)carbamoyl)benzoic acid] | > 250 °C | 0.00353 µM | 2.37 µM | – | – | – | – | – | > 50 µM | – | – | – |
| CC1Cc2ccc(NC(=O)c3ccc(C(=O)O)cc3)cc2C1=O (stereo not drawn) [Compound 36k, 4-((2-Methyl-3-oxo-2,3-dihydro-1H-inden-5-yl)carbamoyl)benzoic acid] | > 250 °C | – | 2.66 µM | – | – | – | – | – | > 50 µM | – | – | – |
| CC(C)C1Cc2ccc(NC(=O)c3ccc(C(=O)O)cc3)cc2C1=O (stereo not drawn) [Compound 36l, 4-((2-Isopropyl-3-oxo-2,3-dihydro-1H-inden-5-yl)carbamoyl)benzoic acid] | > 250 °C | 0.00468 µM | 2.11 µM | – | – | – | – | – | 36.9 µM | – | – | – |

Second part, led by results:

| melting point | EC50 (RARα (RAR alpha LBD-GST)) | IC50 (HL60 cells [4]; [6]) | Structure (SMILES) | CD11b (%) HL60 (HL60 cells [1]; 10 μM) | IC50 (NB4 cells [2]; Homo sapiens, NB-4, 72 h) | CD11b (%) NB4 (NB4 cells [3]; 10 μM) | IC50 (HL60 cells [4]; HL-60, 72 h) | CD11b (%) HL60 (HL60 cells [1]; 50 μM) | IC50 (NB4 cells [2]; [5]) | CD11b (%) NB4 (NB4 cells [3]; 5 μM) | IC50 (NB4 cells [2]; NB4 cells, 72 hours, SRB) | CD11b (%) NB4 (NB4 cells [3]; 20 μM) |
| --- | --- | --- | --- | --- | --- | --- | --- | --- | --- | --- | --- | --- |
| > 250 °C | 0.13 µM | 0.13 µM | COC1CCc2ccc(NC(=O)c3ccc(C(=O)O)cc3)cc21 (stereo not drawn) [Compound 36b, 4-((3-Methoxy-2,3-dihydro-1H-inden-5-yl)carbamoyl)benzoic acid] | – | – | – | – | – | 35.4 µM | – | – | – |
| > 250 °C | > 1 µM | > 50 µM | COC1Cc2ccc(NC(=O)c3ccc(C(=O)O)cc3)cc2C1 (stereo not drawn) [Compound 36f, 4-((2-Methoxy-2,3-dihydro-1H-inden-5-yl)carbamoyl)benzoic acid] | – | – | – | – | – | > 50 µM | – | – | – |
| > 250 °C | 0.292 µM | 0.43 µM | COC1c2cc(NC(=O)c3ccc(C(=O)O)cc3)ccc2CC1C (stereo not drawn) [Compound 36m, 4-((3-Methoxy-2-methyl-2,3-dihydro-1H-inden-5-yl)carbamoyl)benzoic acid] | – | – | – | – | – | > 50 µM | – | – | – |
| > 250 °C | 0.146 µM | 0.8 µM | CCOC1c2cc(NC(=O)c3ccc(C(=O)O)cc3)ccc2CC1C (stereo not drawn) [Compound 36n, 4-((3-Ethoxy-2-methyl-2,3-dihydro-1H-inden-5-yl)carbamoyl)benzoic acid] | – | – | – | – | – | 8.51 µM | – | – | – |
| > 250 °C | 0.00393 µM | 2.35 µM | COC1c2cc(NC(=O)c3ccc(C(=O)O)cc3)ccc2CC1C(C)C (stereo not drawn) [Compound 36o, 4-((2-Isopropyl-3-methoxy-2,3-dihydro-1H-inden-5-yl)carbamoyl)benzoic acid] | – | – | – | – | – | > 50 µM | – | – | – |
| > 250 °C | 0.00903 µM | 1.13 µM | CCOC1c2cc(NC(=O)c3ccc(C(=O)O)cc3)ccc2CC1C(C)C (stereo not drawn) [Compound 36p, 4-((3-Ethoxy-2-isopropyl-2,3-dihydro-1H-inden-5-yl)carbamoyl)benzoic acid] | – | – | – | – | – | 7.56 µM | – | – | – |

— publication PMC6155728, “Design, Synthesis and Evaluation of Indene Derivatives as Retinoic Acid Receptor α Agonists” (Molecules : A Journal of Synthetic Chemistry and Natural …, 2016)
